Measurements reported in the OPERA property sets (Mansouri et al. 2018).
Peptide text beside a SMILES is read from it.

| SMILES | logP |
| --- | --- |
| CC(=O)NC(CCC(=O)O)C(=O)NC(Cc1ccccc1)C(=O)NC(CC(C)C)C(N)=O (stereo not drawn) (Ac-Glu-Phe-Leu-NH2; configuration not given here) | 0.32 |
| CNc1nc(NC(C)(C)C)nc(SC(F)F)n1 | 3.91 |
| CC(C)(O)C(=O)O | -0.36 |
| CC(=O)c1cn(C)c2ccccc12 | 1.95 |
| NS(=O)(=O)c1ccc2c(c1)S(=O)(=O)NC(CC1CCCC1)N2 (stereo unspecified) | 1.24 |
| BrCCCc1ccccc1 | 3.72 |
| CC1CN(N=O)CC(C)N1 (stereo unspecified) | 0.73 |
| CCCN(CCC)S(=O)(=O)c1ccc(C(=O)O)cc1 | 3.21 |
| O=C(O)Cc1ccc2ccccc2c1 | 2.81 |
| O=c1[nH]ncc2ccccc12 | 0.75 |
| COC(=O)c1ccccc1N=NN(C)C | 2.51 |
| CCCCCc1cn[nH]c1 | 2.96 |
| CS(=O)(=O)Nc1ccccc1 | 0.95 |
| Cc1cc(Br)cnc1NS(=O)(=O)c1ccc(N)cc1 | 2.05 |
| Nc1ccc2c(n1)[nH]c1ccccc12 | 2.6 |
| CCOC(=O)C(Cc1ccccc1)C(=O)OCC | 2.76 |
| CC1CCCC1 | 3.37 |
| NNC=O | -2.05 |
| O=C(O)CCCl | 0.41 |
| C=C(C)C(=O)OC | 1.38 |
| Cc1ccc(N=C=S)cc1 | 3.92 |
| CNC(=O)Nc1ccc(OC)c(Cl)c1 | 1.76 |
| CC(C)N(C(=O)CCl)c1ccccc1 | 2.18 |
| C#CCCC(C)=O | 0.58 |

| SMILES | logP |
| --- | --- |
| Cc1ccccc1C#N | 2.21 |
| N=C(N)NCCCCc1ccccc1 | 1.59 |
| C=CCC(NC(C)=O)C(N)=O (stereo unspecified) | -0.86 |
| O=c1cc[nH]c2cc(C(F)(F)F)ccc12 | 2.05 |
| Cc1cc(NS(=O)(=O)c2ccc(N)cc2)nc(C)n1 | -0.33 |
| Oc1cccc2cccnc12 | 2.02 |
| CCCCCC(=O)O | 1.92 |
| Nc1nc(N)nc(-c2cccc(C(F)(F)F)c2)n1 | 2.67 |
| CN(C)c1cccnc1 | 1.41 |
| NC(=O)Nc1ccccc1Cl | 1.27 |
| c1ccn2cccc2c1 | 2.49 |
| O=[N+]([O-])C=Cc1ccc(Cl)cc1Cl | 3.26 |
| C1=COCCC1 | 0.69 |
| CC(=O)CCC(=O)O | -0.49 |
| CCOc1cc(C(=O)NN)ccn1 | 0.48 |
| COC1CC(OC2CCC3(C)C(CCC4C3CCC3(C)C(C5=CC(=O)OC5)C(OC(C)=O)CC43O)C2)OC(C)C1OC(C)=O (stereo unspecified) | 2.95 |
| CC(=O)c1ccccc1[N+](=O)[O-] | 1.28 |
| O=[N+]([O-])c1cccc(Cl)c1Cl | 3.05 |
| c1ccc2c(c1)Cc1ccccc1C2 | 4.25 |
| Oc1cc(Cl)c(Cl)c(Cl)c1 | 4.01 |
| CCOC(=O)C(C(=O)OCC)=C(C(=O)OCC)C(=O)OCC | 2.63 |
| O=C(O)C(Cc1ccccc1)n1cccc1 (stereo unspecified) | 2.34 |
| C(=C\c1ccccc1)/c1ccccc1 | 4.81 |
| OCCOCCOCCN1CCC(=C(c2ccccc2)c2ccccc2)CC1 | 3.78 |

| SMILES | logP |
| --- | --- |
| CCCCCOCc1ccccc1NC(=O)OCCN1CCCCC1 | 4.42 |
| CCNc1nc(NC(C)C(C)C)nc(SC)n1 (stereo unspecified) | 3.9 |
| O=C(c1ccco1)C(O)c1ccco1 (stereo unspecified) | 0.54 |
| Brc1ccc2ncccc2c1 | 2.83 |
| Cc1ncc(CNC(=O)N(CCCl)N=O)c(N)n1 | 0.39 |
| CC(C)(C)C#N | 1.08 |
| CCCC(=O)Nc1ccccc1 | 2.05 |
| CC(C)(C)C(=O)C(C)(C)C | 3 |
| Brc1cccnc1 | 1.6 |
| N#Cc1ccccc1N | 1.4 |
| c1ccc2[nH]ncc2c1 | 1.77 |
| CN1C(=O)CN=C(c2ccc(Cl)cc2)c2cc(F)ccc21 | 3.1 |
| COc1cccc(OCC(=O)NNC(C)C)c1 | 1.33 |
| COc1ccc(Cl)nn1 | 0.89 |
| COC(=O)c1cccc(O)c1 | 1.89 |
| COc1cccc(OC)c1C(=O)N[C@@H]1C(=O)N2[C@@H]1SC(C)(C)[C@@H]2C(=O)O | 1.22 |
| CCOC(=O)C(=Cc1ccc(Cl)cc1Cl)C(C)=O | 3.67 |
| O=NN(CCCl)C(=O)Nc1ccccc1 | 2.49 |
| ON=C1C=CC(=NO)C=C1 | 1.49 |
| CC(C)(C)C(=O)c1ccccc1 | 3 |
| O=C(O)c1c2ccccc2cc2ccccc12 | 3.85 |
| CCCOc1cncc(C)n1 | 2.29 |
| CCCCCOc1cccc(O)c1 | 3.63 |
| CC(N)=S | -0.26 |

| SMILES | logP |
| --- | --- |
| COc1cccc(NC(=O)N(CCCl)N=O)c1 | 2.66 |
| C1OC1C1CO1 (stereo unspecified) | -0.52 |
| CCCCCC[N+](=O)[O-] | 2.7 |
| CCSc1ccccc1 | 3.2 |
| Oc1c(Cl)c(Cl)cc(Cl)c1Cl | 3.88 |
| CC1CO1 (stereo unspecified) | 0.03 |
| Brc1ccc2cccnc2c1 | 2.92 |
| CCCOCc1ccccc1NC(=O)OCCN1CCCCC1 | 3.34 |
| O=C(O)Cc1c(Cl)ccc(Cl)c1Cl | 3.2 |
| O=C(O)CCCN1C(=O)C=CC1=O | 0.4 |
| COC(=O)C(C)(C)C | 1.83 |
| C[C@@H]1C[C@@H]([C@H](O)CC2CC(=O)NC(=O)C2)C(=O)[C@@H](C)C1 | 0.55 |
| OCC(F)(F)C(F)(F)F | 1.23 |
| CCCCC1(c2ccncc2)CCC(=O)NC1=O (stereo unspecified) | 1.68 |
| c1ccc2[nH]cnc2c1 | 1.32 |
| c1ccc(NC2=NCCN2)cc1 | 1.01 |
| COC1C(O)C(C)OC(OC2CCC3(C=O)C(CCC4C3CCC3(C)C(C5=CC(=O)OC5)CCC43O)C2)C1O (stereo unspecified) | 1.05 |
| CCCCCn1cnc2c(N)ncnc21 | 1.79 |
| O=C(O)Cc1sc(-c2ccccc2)nc1-c1ccc(Cl)cc1 | 5.19 |
| COc1nnc(OC)c2ccccc12 | 2.22 |
| Cc1[nH]cnc1CSCCNc1[nH]ccc(=O)c1[N+](=O)[O-] | -0.2 |
| CCOC(=O)C(F)F | 0.87 |
| CC=CC (mixture of isomers) | 2.33 |
| Cc1ccccc1C(=O)Nc1cccc(OC(C)C)c1 | 3.66 |

| SMILES | logP |
| --- | --- |
| OCCCCCc1ccncc1 | 1.39 |
| CNC(=O)Oc1cc(Cl)ccc1Cl | 2.44 |
| CC(=O)Oc1ccccc1I | 2.55 |
| Cc1ccc(C)c(O)c1 | 2.33 |
| Cn1cccc1C=NNC(=O)Nc1ccccc1 | 2.71 |
| Nc1ccc(-c2ccc(N)c(Cl)c2)cc1Cl | 3.51 |
| C#CCN(CC#C)CC#C | 1.27 |
| c1ccc(-n2cccn2)cc1 | 2.2 |
| CCCCOc1ccc(OC(=O)NC)cc1 | 2.86 |
| COC(=O)c1ccccc1Cl | 2.38 |
| O=C(O)c1c(O)cccc1O | 2.2 |
| CNC(=O)Oc1ccc(C=O)cc1 | 0.99 |
| Cn1ccc(=O)n(C)c1=O | -0.54 |
| COc1cc2c(cc1OC)C13CCN4CC5CCOC6CC(=O)N2C1C6C5CC43 (stereo unspecified) | 0.84 |
| O=C(O)Cc1ccc(OCCc2ccccc2)c(Cl)c1 | 3.53 |
| Nc1ccccc1I | 2.32 |
| O=NN(CCCl)C(=O)NC1CCCCC1Cl (stereo unspecified) | 2.73 |
| CNP(=O)(OC)Oc1ccc(C(C)(C)C)cc1Cl (stereo unspecified) | 3.42 |
| Nc1cccnc1 | 0.11 |
| Nc1ccc(C(=O)Oc2ccc(Br)cc2)c(O)c1 | 3.46 |
| Nc1nc(N)nc(-c2cccc(SC(F)(F)F)c2)n1 | 3.2 |
| COc1ccc2cccnc2c1 | 2.37 |
| NC(=O)C(Cl)Cl | 0.19 |
| Ic1ccc(I)cc1 | 4.11 |

| SMILES | logP |
| --- | --- |
| COc1cccc(OC(=O)N(C)C)c1 | 1.6 |
| CCOC(=O)c1ccc(N)cc1 | 1.86 |
| Cc1cc(=O)[nH]o1 | 0.46 |
| [N-]=[N+]=CC(=O)NCC(N)=O | -1.26 |
| C[C@]12CC[C@H](O)C[C@H]1CC[C@@H]1[C@@H]2CC[C@]2(C)[C@@H](C3=CC(=O)OC3)CC[C@]12O | 2.64 |
| O=C(Nc1ccccc1)N(Cc1ccc(Cl)cc1)C1CCCC1 | 4.82 |
| O=C(O)Cc1ccccc1Nc1c(Cl)cccc1Br | 4.64 |
| CN(C)C(N(C)C)=S(I)c1ccccc1F (stereo unspecified) | -0.55 |
| NCCc1ccc(O)c(O)c1 | -0.98 |
| O=S1OCC2C(CO1)C1(Cl)C(Cl)=C(Cl)C2(Cl)C1(Cl)Cl (stereo unspecified) | 3.83 |
| CC(=O)Nc1ccc(O)c(C)c1C | 0.57 |
| O=[N+]([O-])c1cccc2ccccc12 | 3.19 |
| CN(C)C(N(C)C)=S(I)c1cccc([N+](=O)[O-])c1 (stereo unspecified) | -0.88 |
| O=C1CCN(c2ccccc2)N1 | 0.89 |
| c1cn[nH]c1 | 0.26 |
| O=C1Nc2ccccc2C1=O | 0.83 |
| O=C(Cc1ccccc1)NC(CO)C(O)c1ccc([N+](=O)[O-])cc1 (stereo unspecified) | 1.52 |
| CCOC(=O)NC(O)C(Cl)(Cl)Cl (stereo unspecified) | 1.84 |
| CCNC(=O)Nc1ccccc1 | 1.64 |
| O=C(O)c1ccc(C(F)(F)F)cc1 | 3.1 |
| O=C(O)Cc1cccc([N+](=O)[O-])c1 | 1.45 |
| CCCCCCCCBr | 4.89 |
| O=C(O)c1cc([N+](=O)[O-])cc([N+](=O)[O-])c1 | 1.55 |
| CCC(C)C(=O)Nc1ccccc1 (stereo unspecified) | 2.56 |

| SMILES | logP |
| --- | --- |
| CC(=O)c1ccc(F)cc1 | 1.72 |
| COc1cc2c(c(OC)c1OC)-c1ccc(=O)c(OC)cc1[C@@H](NC(=O)C(F)(F)F)CC2 | 2.08 |
| COc1cc2c(c(OC)c1OC)-c1ccc(O)c(=O)cc1[C@@H](NC(=O)C(F)(F)F)CC2 | 1.82 |
| Clc1ccc(Cl)c(Cl)c1 | 4.02 |
| CCCCC(=O)OCC(=O)[C@@]1(OC(=O)CCCC)[C@@H](C)C[C@H]2[C@@H]3CCC4=CC(=O)C=C[C@]4(C)[C@@]3(F)[C@@H](O)C[C@@]21C | 5.26 |
| CCN(CC)CCNc1ccc(C)c(Cl)c1 | 4.14 |
| S=C1CCCCN1 | 0.13 |
| COC(=O)CNC(=O)c1ccccc1 | 0.82 |
| CC(C)CC(N)Cc1ccccc1 (stereo unspecified) | 3.29 |
| [O-][n+]1cccc2ccccc21 | 0.36 |
| N[C@@H](CCC(=O)O)C(=O)O | -3.69 |
| CCCCc1cccc(NC(=O)N(C)C)c1 | 3.23 |
| NC(=O)CCNC(=O)C(F)(F)Cn1ccnc1[N+](=O)[O-] | -0.95 |
| CN(C)C(N(C)C)=S(I)c1cccc(C#N)c1 (stereo unspecified) | -1.1 |
| NC(=O)C1(N2CCCCC2)CCN(CCCC(=O)c2ccc(F)cc2)CC1 | 2.02 |
| O=[N+]([O-])c1cccc2cccnc12 | 1.4 |
| O=C(CCl)Nc1ccccc1 | 1.63 |
| O=c1[nH]c2ccccc2o1 | 1.16 |
| CCCCc1ccc(C(=O)O)cc1 | 3.97 |
| Clc1ccc(Cl)c(-c2ccc(Cl)c(Cl)c2)c1 | 6.23 |
| c1cnccn1 | -0.26 |
| Cc1cccc(OC(=O)N(C)C)c1 | 2.05 |
